Laboratory results reported in the NIST ThermoML archive (doi:10.1016/j.jct.2010.10.018).

Key:
[1] = 101.33 kPa, Liquid, Vibrating tube method
[2] = xn = mol fraction of the nth substance listed; conditions: 101 kPa, Liquid, Vibrating tube method, x2 = 0

CC(C)(C)O [2-methylpropan-2-ol]
[1]
Conditions | mass density [kg/m3]
299.15 K | 779.48
303.15 K | 775.39
308.15 K | 770.15
313.15 K | 764.84
318.15 K | 759.46
323.15 K | 753.94
333.15 K | 742.7
348.15 K | 725.06

O [water] + CC(C)(C)O
[2]
Conditions | mass density [kg/m3]
274.15 K | 999.899
275.15 K | 999.94
276.15 K | 999.964
277.15 K | 999.972
278.15 K | 999.964
279.15 K | 999.94
280.15 K | 999.901
281.15 K | 999.848
282.15 K | 999.781
283.15 K | 999.699
323.15 K | 988.03
333.15 K | 983.191
348.15 K | 974.838
